Experimental data as given in US9907765B2, “Treatment of connective tissue diseases of the skin” (Cipher Pharmaceuticals, Inc., priority 2005, dated 2018).

Tests used:
[1] = tested on: patients suffering from discoid Lupus Erythematosus; assay: Topical treatment of cutaneous manifestations in patients with discoid Lupus Erythematosus; type: in vivo, human; details: patient with Discoid Lupus Erythematosus, after 3 weeks treatment
Excerpt: (§1) Examples 2 to 5 concern the treatment of cutaneous manifestation in patients suffering from discoid Lupus Erythematosus or subacute Lupus Erythematosus with the topical composition of Example 1 under the control of a medical doctor of Bispebjerg Hospital, Denmark. The composition was applied to affected areas once or twice per day.
A person had been suffering from discoid Lupus Erythematosus for 18 years. Their arms were somewhat affected and the fingers were severely affected with acrocyanosis. During the years, the person had regularly been treated with strong topical steroids, but with limited effect.
During an aggravation of the disease, which especially affected the fingers, the person initiated a treatment with the emulsion according to example 1 on the fingers.
A person had been suffering from discoid Lupus Erythematosus for 6 years. The symptoms started on the chin, but had spread to most of the face.
During an aggravation of the symptoms, the subject initiated a twice daily treatment with the emulsion according to example 1.
A person had been suffering from discoid Lupus Erythematosus for 32 years. The disease was very severe with a strong affection of the arms and the back and with elements spread to other parts of the body. The person had been treated with ercoquin and strong topical corticosteroids, but with limited effect. […]

[2] = tested on: patients suffering from subacute Lupus Erythematosus; assay: Topical treatment of cutaneous manifestations in patients with subacute Lupus Erythematosus; type: in vivo, human; details: patient with Sub-acute Cutaneous Lupus Erythematosus, after 8 weeks of treatment
Excerpt: as §1
A person had been suffering from subacute Lupus Erythematosus for 16 years. The subject was affected on large areas of the body with elements on the back, the breast and the face.
The person has previously been treated with oral prednisolone, chlorochin, thalidomide and strong topical steroids, but all with limited or no effect.
During an aggravation of the symptoms, the person initiated a twice daily treatment with the emulsion according to example 1.

[3] = tested on: Albino guinea pigs of Dunkin-Hartley strain; assay: Skin sensitization test according to the Magnusson and Kligman method (O.E.C.D. Guideline No 406); type: in vivo, guinea pig
Description: Assessment of sensitising properties of R-salbutamol. Test for skin sensitization is carried out according to the Magnusson and Kligman method (J. Invest. Dermatol. 1969. 52, 268-276) and in accordance with O.E.C.D. Guideline No 406 of Jul. 17, 1992, and the test method B.6 of the 96/54 E.E.C Directive. The test item (R-salbutamol as the sulphate salt) was diluted with distilled water to prepare a concentration of 0.5% (w/v). Albino guinea pigs of Dunkin-Hartley strain were exposed to the test item after an acclimatisation period of at least five days. The Maximum Non Necrotizing Concentration (M.N.N.C.) was determined by injecting by intradermal route the following concentrations of the test item 0.25%, 0.125%, 0.0625%, 0.0312% and 0.0156% diluted in physiological saline solution. Pre-Maximum Non Irritant Concentration (pre-M.N.I.C.) was determined by application of the test item under an occlusive dressing during 24 hours, at the following concentrations: 0.5%, 0.25%, 0.125% and 0.0625% diluted in physiological saline solution. Maximum Non Irritant Concentration (M.N.I.C.) was determined by initially establishing an induction phase by intradermal injection with a physiological saline solution and by topical application of distilled water followed by a 18-day rest phase. […]

Molecule | improvement of inflamed lesions [1] | remission of the cutaneous symptoms [2] | macroscopic cutaneous reactions attributable to allergy ([3]; challenge phase, after removal of 24 h occlusive dressing, induction with test item at 0.5%) | skin sensitization following topical application ([3]; topical application to skin)
1-[[(1,1-Dimethylethyl)amino]methyl]-4-hydroxy-1,3-benzenedimethanol [Salbutamol] | significant improvement | complete remission |  | 
CC(C)(C)NC[C@H](O)c1ccc(O)c(CO)c1 [R-salbutamol] |  |  | No macroscopic cutaneous reactions attributable to allergy | does not confer skin sensitization
